17 compounds from US20240383923A1, “HETEROARYL DERIVATIVE AND USE THEREOF” (VORONOI INC., priority 2022, published 2024) can be followed below.

The subject of one assay is BT-474 cancer cells. The experiment in a line: Inhibition of BT-474 cell proliferation (CellTiter-Glo). The format is cell-based. Conditions: Homo sapiens, BT-474 cells, 120 hours. Summed up:
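BT-474 cells in RPMI-1640 with 20% FBS, seeded 48 h before dosing with 11 three-fold dilutions (final 0.2 nM to 10 μM). Viability read by CellTiter-Glo luminescence 120 h after treatment, triplicate tests. GI50 derived from growth rate (%) versus control.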

A further assay deals with N-87 cancer cells. The experiment in a line: Inhibition of N-87 cell proliferation (CellTiter-Glo). The format is cell-based. Conditions: N-87 cells, 72 hours. The method, then: N-87 cancer cells were cultured by using RPMI-1640 medium with 10% FBS. The N-87 cancer cells were seeded to a white clear bottom 96 well plate (Corning) at 5,000 cells per well 24 hours before the […] cancer cells were treated with Example Compounds. Example Compounds were diluted in dimethylsulfoxide (5-fold diluted, total 11 concentrations) and 0.5 μL each was injected so that the final concentration was […]. For the measurement of living cells, the cells were stored at room temperature for 10 minutes using the CellTiter-Glo cell viability reagent (Promega) after 72 hours after the treatment of Example Compounds, and then the luminescence intensity was measured using the reader (SynergyNeo, Biotek).
The result value was calculated as a cell growth rate (%) compared to a control group. Graphs were plotted and GI50 values were calculated using the GraphPad Prism version 8.0 program, and the results are shown in Table 18 below.
Background: ATP-based viability assays read luminescence as a measure of living cells.

As to `C=CC(=O)N1CCC(Oc2cc3c(Nc4ccc(Oc5ccn(-c6cnc(C)c(F)c6)n5)cc4OC)ncnc3cc2OC)CC1` [Example 9, 1-(4-((4-((4-((1-(5-fluoro-6-methylpyridin-3-yl)-1H-pyrazol-3-yl)oxy)-2-methoxyphenyl)amino)-7-methoxyquinazolin-6-yl)oxy)piperidin-1-yl)prop-2-en-1-one], the 50% growth inhibitory concentration (GI50) is 50 to 100 nM in the assay with BT-474 cancer cells and at most 50 nM in the assay on N-87 cancer cells.
Turning to `C=CC(=O)N1CCC(Oc2cc(OC)cc3ncnc(Nc4cc(C)c(Oc5ccn6ncnc6c5)cc4OC)c23)C(F)(F)C1` (stereo not shown) [Example 15, 1-(4-((4-((4-([1,2,4]triazolo[1,5-a]pyridin-7-yloxy)-2-methoxy-5-methylphenyl)amino)-7-methoxyquinazolin-5-yl)oxy)-3,3-difluoropiperidin-1-yl)prop-2-en-1-one], the GI50 with BT-474 cancer cells and with N-87 cancer cells was at most 50 nM each time.
For `C=CC(=O)N1CCC(F)(F)C(Oc2cc(OC)cc3ncnc(Nc4cc(C)c(Oc5ccn6ncnc6c5)cc4OC)c23)C1` (stereo not shown) [Example 16, 1-(3-((4-((4-([1,2,4]triazolo[1,5-a]pyridin-7-yloxy)-2-methoxy-5-methylphenyl)amino)-7-methoxyquinazolin-5-yl)oxy)-4,4-difluoropiperidin-1-yl)prop-2-en-1-one], the GI50 with BT-474 cancer cells and in the assay with N-87 cancer cells was at most 50 nM in each case.
On to `C=CC(=O)Nc1cc2c(Nc3cc(Cl)c(Oc4ccccn4)cc3OC)ncnc2cc1OC` [Example 24, N-(4-((5-chloro-2-methoxy-4-(pyridin-2-yloxy)phenyl)amino)-7-methoxyquinazolin-6-yl)acrylamide], for which the concentration for 50% growth inhibition (GI50) in the assay on BT-474 cancer cells and in the assay with N-87 cancer cells was at most 50 nM throughout.
On to `COc1cc2ncnc(Nc3cc(Cl)c(Oc4cccc(F)c4)cc3OC)c2cc1NC(=O)/C=C/[C@H]1CCCN1` [Example 31, (R,E)-N-(4-((5-chloro-4-(3-fluorophenoxy)-2-methoxyphenyl)amino)-7-methoxyquinazolin-6-yl)-3-(pyrrolidin-2-yl)acrylamide], for which the GI50 with BT-474 cancer cells and in the assay with N-87 cancer cells was at most 50 nM each time.
Regarding `COc1cc2ncnc(Nc3cc(Cl)c(Oc4ccn5ncnc5c4)cc3OC)c2cc1NC(=O)/C=C/[C@H]1CCCN1C` [Example 32, (R,E)-N-(4-((4-([1,2,4]triazolo[1,5-a]pyridin-7-yloxy)-5-chloro-2-methoxyphenyl)amino)-7-methoxyquinazolin-6-yl)-3-(1-methylpyrrolidin-2-yl)acrylamide], the 50% growth inhibitory concentration (GI50) with BT-474 cancer cells and with N-87 cancer cells was at most 50 nM each time.
On to `COc1cc2ncnc(Nc3cc(C)c(Oc4ccn5ncnc5c4)cc3OC)c2cc1NC(=O)/C(F)=C\[C@H]1CCCN1C` [Example 41, (R,E)-N-(4-((4-([1,2,4]triazolo[1,5-a]pyridin-7-yloxy)-2-methoxy-5-methylphenyl)amino)-7-methoxyquinazolin-6-yl)-2-fluoro-3-(1-methylpyrrolidin-2-yl)acrylamide], for which the GI50 in the assay on BT-474 cancer cells and with N-87 cancer cells was at most 50 nM each time.
`COc1cc2ncnc(Nc3ccc(Oc4ccn5ncnc5c4)cc3OC)c2cc1NC(=O)/C(F)=C\[C@H]1CCCN1C` [Example 46, (R,E)-N-(4-((4-([1,2,4]triazolo[1,5-a]pyridin-7-yloxy)-2-methoxyphenyl)amino)-7-methoxyquinazolin-6-yl)-2-fluoro-3-(1-methylpyrrolidin-2-yl)acrylamide]: the 50% growth inhibitory concentration (GI50) in the assay with BT-474 cancer cells and with N-87 cancer cells was at most 50 nM each time.
Turning to `COc1cc2ncnc(Nc3cc(Cl)c(Oc4ccn5ncnc5c4)cc3OC)c2cc1NC(=O)/C(F)=C\[C@H]1CCCN1C` [Example 51, (R,E)-N-(4-((4-([1,2,4]triazolo[1,5-a]pyridin-7-yloxy)-5-chloro-2-methoxyphenyl)amino)-7-methoxyquinazolin-6-yl)-2-fluoro-3-(1-methylpyrrolidin-2-yl)acrylamide], the GI50 with BT-474 cancer cells and in the assay on N-87 cancer cells was at most 50 nM throughout.
Consider `CCN1CCC[C@@H]1/C=C(/F)C(=O)Nc1cc2c(Nc3cc(C)c(Oc4ccn5ncnc5c4)cc3OC)ncnc2cc1OC` [Example 52, (R,E)-N-(4-((4-([1,2,4]triazolo[1,5-a]pyridin-7-yloxy)-2-methoxy-5-methylphenyl)amino)-7-methoxyquinazolin-6-yl)-3-(1-ethylpyrrolidin-2-yl)-2-fluoroacrylamide], for which the GI50 in the assay with BT-474 cancer cells and in the assay on N-87 cancer cells was at most 50 nM each time.
`COc1cc2ncnc(Nc3cc(C)c(Oc4ccc5ncn(C)c5c4)cc3OC)c2cc1NC(=O)/C(F)=C\[C@H]1CCCN1C` [Example 55, (R,E)-2-fluoro-N-(7-methoxy-4-((2-methoxy-5-methyl-4-((1-methyl-1H-benzo[d]imidazol-6-yl)oxy)phenyl)amino)quinazolin-6-yl)-3-(1-methylpyrrolidin-2-yl)acrylamide]: the GI50 in the assay with BT-474 cancer cells and in the assay with N-87 cancer cells was at most 50 nM throughout.
Consider `COc1cc2ncnc(Nc3cc(C)c(Oc4ccccc4)cc3OC)c2cc1NC(=O)/C(F)=C\[C@H]1CCCN1C` [Example 74, (R,E)-2-fluoro-N-(7-methoxy-4-((2-methoxy-5-methyl-4-phenoxyphenyl)amino)quinazolin-6-yl)-3-(1-methylpyrrolidin-2-yl)acrylamide], for which the GI50 in the assay on BT-474 cancer cells and in the assay with N-87 cancer cells was at most 50 nM each time.
In the case of `COc1cc2ncnc(Nc3cc(C)c(Oc4ccn5ccnc5c4)cc3OC)c2cc1NC(=O)/C(F)=C/[C@H]1CCCN1C` [Example 76, (R,Z)-2-fluoro-N-(4-((4-(imidazo[1,2-a]pyridin-7-yloxy)-2-methoxy-5-methylphenyl)amino)-7-methoxyquinazolin-6-yl)-3-(1-methylpyrrolidin-2-yl)acrylamide], the GI50 in the assay with BT-474 cancer cells and with N-87 cancer cells was at most 50 nM throughout.
As to `COc1cc(Oc2ccn3ncnc3c2)c(C)cc1Nc1ncnc2ccc(NC(=O)/C(F)=C\[C@H]3CCCN3C)cc12` [Example 91, (R,E)-N-(4-((4-([1,2,4]triazolo[1,5-a]pyridin-7-yloxy)-2-methoxy-5-methylphenyl)amino)quinazolin-6-yl)-2-fluoro-3-(1-methylpyrrolidin-2-yl)acrylamide], the GI50 in the assay with BT-474 cancer cells and with N-87 cancer cells was at most 50 nM throughout.
As to `CCOc1cc2ncnc(Nc3cc(C)c(Oc4ccn5ncnc5c4)cc3OC)c2cc1NC(=O)/C(F)=C\[C@H]1CCCN1C` [Example 93, (R,E)-N-(4-((4-([1,2,4]triazolo[1,5-a]pyridin-7-yloxy)-2-methoxy-5-methylphenyl)amino)-7-ethoxyquinazolin-6-yl)-2-fluoro-3-(1-methylpyrrolidin-2-yl)acrylamide], the concentration for 50% growth inhibition (GI50) in the assay on BT-474 cancer cells and with N-87 cancer cells was at most 50 nM throughout.
With `COCCOc1cc2ncnc(Nc3cc(C)c(Oc4ccn5ncnc5c4)cc3OC)c2cc1NC(=O)/C(F)=C/[C@H]1CCCN1C` [Example 95, (R,Z)—N-(4-((4-([1,2,4]triazolo[1,5-a]pyridin-7-yloxy)-2-methoxy-5-methylphenyl)amino)-7-(2-methoxyethoxy)quinazolin-6-yl)-2-fluoro-3-(1-methylpyrrolidin-2-yl)acrylamide], the concentration for 50% growth inhibition (GI50) in the assay on BT-474 cancer cells and in the assay with N-87 cancer cells was at most 50 nM in each case.
For the compound `CCOc1cc(Oc2ccn3ncnc3c2)c(C)cc1Nc1ncnc2cc(OC)c(NC(=O)/C(F)=C\[C@H]3CCCN3C)cc12` [Example 104, (R,E)-N-(4-((4-([1,2,4]triazolo[1,5-a]pyridin-7-yloxy)-2-ethoxy-5-methylphenyl)amino)-7-methoxyquinazolin-6-yl)-2-fluoro-3-(1-methylpyrrolidin-2-yl)acrylamide], the GI50 in the assay on BT-474 cancer cells and with N-87 cancer cells was at most 50 nM in each case.

The GI50 is the concentration at which growth is held to half of that of the control.
